The source made the active and inactive calls.
Assays:
[1] = viability of PTEN-deleted HCT116 cells – cell-based, HCT116 PTEN knockout, dose response (AID 1047); type: functional;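 note: HCT116 colon tumor cells with PTEN knocked out; cells exposed to compound for 60 hours before readout; potency for loss of cell viability measured by luminescence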
[2] = biological target: T1, Mannose-6-phosphate isomerase (Homo sapiens, UniProt P34949); test: MPI inhibition at elevated mannose 6-phosphate – biochemical, fluorescence intensity, high mannose 6-phosphate, primary screen (AID 1220)
T1 sequence (P34949 whole entry): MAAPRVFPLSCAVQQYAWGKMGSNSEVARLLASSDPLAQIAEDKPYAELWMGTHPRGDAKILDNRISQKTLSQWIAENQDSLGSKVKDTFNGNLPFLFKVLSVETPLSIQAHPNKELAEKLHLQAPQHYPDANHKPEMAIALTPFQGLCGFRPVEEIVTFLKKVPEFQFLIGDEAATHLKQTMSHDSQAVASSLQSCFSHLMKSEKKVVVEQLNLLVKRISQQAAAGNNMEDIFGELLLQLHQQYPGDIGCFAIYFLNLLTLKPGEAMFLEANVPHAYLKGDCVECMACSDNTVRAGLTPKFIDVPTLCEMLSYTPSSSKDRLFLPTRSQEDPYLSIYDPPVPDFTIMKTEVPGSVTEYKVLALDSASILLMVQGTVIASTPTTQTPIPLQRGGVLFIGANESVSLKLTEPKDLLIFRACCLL

[3] = biological target: T2, Calpain-2 catalytic subunit (Sus scrofa, UniProt P43367); test: m-calpain protease blockers, concentration series – biochemical, fluorogenic peptide substrate, dose response (AID 1420); type: functional
T2 sequence (P43367 whole entry): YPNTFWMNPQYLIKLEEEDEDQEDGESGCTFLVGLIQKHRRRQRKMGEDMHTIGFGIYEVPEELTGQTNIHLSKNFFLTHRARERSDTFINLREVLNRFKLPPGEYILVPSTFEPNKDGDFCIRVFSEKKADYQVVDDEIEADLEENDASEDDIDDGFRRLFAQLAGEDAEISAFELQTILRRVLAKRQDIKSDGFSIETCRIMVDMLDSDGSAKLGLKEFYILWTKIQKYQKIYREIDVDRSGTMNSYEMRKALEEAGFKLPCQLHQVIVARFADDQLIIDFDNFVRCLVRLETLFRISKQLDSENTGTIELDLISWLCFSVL

[4] = biological target: T3, DNA repair and recombination protein RAD54-like (Homo sapiens, UniProt Q92698); test: RAD54 Holliday junction migration blockers – biochemical, fluorescence, cherry-picked samples, dose series, confirmation (AID 651657); type: functional
T3 sequence (Q92698 whole entry): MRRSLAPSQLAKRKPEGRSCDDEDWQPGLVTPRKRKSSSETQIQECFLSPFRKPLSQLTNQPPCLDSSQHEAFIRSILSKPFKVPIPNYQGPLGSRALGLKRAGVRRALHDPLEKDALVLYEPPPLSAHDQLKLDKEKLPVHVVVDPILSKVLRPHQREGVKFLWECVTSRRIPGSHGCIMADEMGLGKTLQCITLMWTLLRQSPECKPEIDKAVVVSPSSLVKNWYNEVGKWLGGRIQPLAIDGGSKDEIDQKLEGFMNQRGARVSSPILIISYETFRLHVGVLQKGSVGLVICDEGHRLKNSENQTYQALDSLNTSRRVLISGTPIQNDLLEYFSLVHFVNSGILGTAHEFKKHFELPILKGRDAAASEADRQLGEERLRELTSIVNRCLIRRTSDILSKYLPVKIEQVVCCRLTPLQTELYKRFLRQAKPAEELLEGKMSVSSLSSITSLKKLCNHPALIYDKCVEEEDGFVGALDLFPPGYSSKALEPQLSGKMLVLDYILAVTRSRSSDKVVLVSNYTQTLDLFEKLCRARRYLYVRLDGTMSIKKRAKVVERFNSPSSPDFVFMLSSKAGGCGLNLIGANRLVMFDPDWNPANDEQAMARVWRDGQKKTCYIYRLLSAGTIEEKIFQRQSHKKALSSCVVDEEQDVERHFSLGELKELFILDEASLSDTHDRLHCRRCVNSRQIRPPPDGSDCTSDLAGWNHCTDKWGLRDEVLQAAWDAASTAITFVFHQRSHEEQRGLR

[5] = biological target: T4, DNA repair protein RAD52 homolog (Homo sapiens, UniProt P43351); type: functional, biochemical
T4 sequence (P43351 whole entry): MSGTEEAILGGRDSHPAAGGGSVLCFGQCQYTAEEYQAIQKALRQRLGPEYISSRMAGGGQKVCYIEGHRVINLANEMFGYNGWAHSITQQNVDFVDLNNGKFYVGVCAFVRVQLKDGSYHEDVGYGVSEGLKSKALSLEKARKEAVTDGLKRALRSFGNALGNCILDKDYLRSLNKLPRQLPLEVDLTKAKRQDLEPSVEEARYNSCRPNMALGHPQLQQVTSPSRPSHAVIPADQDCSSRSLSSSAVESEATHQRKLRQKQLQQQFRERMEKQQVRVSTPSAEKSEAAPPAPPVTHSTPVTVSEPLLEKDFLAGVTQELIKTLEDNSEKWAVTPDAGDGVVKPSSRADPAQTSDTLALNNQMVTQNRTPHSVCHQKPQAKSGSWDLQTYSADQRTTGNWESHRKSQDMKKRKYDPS

[6] = Trypanosoma cruzi growth suppression in host cells – NIH3T3 host cells, beta-gal luminescence, confirmation (AID 2044); type: functional, cell-based;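 note: intracellular parasites grown in NIH/3T3 mouse fibroblasts as host cells; luminescent beta-galactosidase reporter signal from transgenic T. cruzi replicating inside host cells; inhibitors lower the luminescence signal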
[7] = NIH3T3 cell viability loss – ATP luminescence, mouse fibroblasts, counter-screen, dose response (AID 2010); type: functional, cell-based;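 note: cells exposed to compound for about 90 hours before reading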
Streptococcus = test: GAS UMAA2166 growth inhibition – luminescence, BacTiterGlo, counter-screen for streptokinase expression inhibitor project, dose response (AID 1915); type: functional, organism-based;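 note: potency for reduction of bacterial viability or growth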
Streptokinase A = biological target: T5, Streptokinase A (Streptococcus pyogenes serotype M1, UniProt P10520); test: viability-normalized secreted streptokinase activity reduction – plasminogen activation absorbance, OD405, dose response (AID 1914); type: functional, Streptococcus pyogenes M1 GAS;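 note: secreted streptokinase activity via plasminogen activation per viability signal from cell pellet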
T5 sequence (P10520 whole entry): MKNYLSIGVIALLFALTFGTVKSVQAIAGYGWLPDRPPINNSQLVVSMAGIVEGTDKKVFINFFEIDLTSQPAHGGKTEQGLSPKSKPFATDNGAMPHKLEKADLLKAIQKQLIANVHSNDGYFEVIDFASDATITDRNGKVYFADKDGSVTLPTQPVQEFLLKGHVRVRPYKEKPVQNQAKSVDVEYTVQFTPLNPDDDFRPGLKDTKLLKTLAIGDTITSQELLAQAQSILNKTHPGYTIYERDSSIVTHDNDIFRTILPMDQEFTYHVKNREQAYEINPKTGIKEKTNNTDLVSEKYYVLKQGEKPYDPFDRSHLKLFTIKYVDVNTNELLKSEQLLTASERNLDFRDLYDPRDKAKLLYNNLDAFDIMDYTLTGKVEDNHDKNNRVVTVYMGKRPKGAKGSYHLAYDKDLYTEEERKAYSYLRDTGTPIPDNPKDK

[8] = bead-based luminescence quenchers, dual-tagged ARNT – biochemical, AlphaScreen, cherry-pick, artefact control for ARNT-TACC3 interaction inhibitor project, dose response (AID 651705); type: functional;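 note: AlphaScreen bead proximity signal that flags compounds interfering with the detection technology; potency reflects signal decrease which marks the compound as an assay artifact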
[9] = tested on: Streptococcus sp. 'group A'; test: Streptococcus pyogenes SK(-)GAS viability under kanamycin – luminescence, BacTiterGlo, confirmation, counter-screen for streptokinase expression inhibitor project, dose response (AID 1900); type: functional, organism-based
cells [10] = type: functional, cell-based
H4 = test: Luminescence Cell-Based Dose Response HTS to Identify Activators of 5'UTR Stem-Loop Driven Prion Protein mRNA Translation in H4 Neuroglioblastoma Cells. [Related pubchem assays: 1829 (Project Summary), 1814 (Primary HTS)]; type: functional; settings: Homo sapiens
[11] = Luminescence Cell-Based Dose Response HTS to Identify Activators of Luciferase Translation or Activity in H4 […] Cells. [Related pubchem assays: 1829 (Project Summary), 1814 (Primary HTS)]; type: functional
[12] = Luminescence Cell-Based Dose Confirmation HTS to Identify Activators of 5'UTR Stem-Loop Driven Alpha-Synuclein mRNA Translation in H4 Neuroglioblastoma Cells. [Related pubchem assays: 1829 (Project Summary), 1814 (Primary HTS)]; type: functional
cells [13] = type: functional, cell-based; remark: listed apart in the source
[14] = biological target: T6, Replicative DNA helicase DnaB (Mycobacterium tuberculosis, UniProt P9WMR3); test: DnaB intein splicing inhibitors, dose response, biochemical, cell-free fluorescence (AID 449749); type: functional
T6 sequence (P9WMR3 whole entry): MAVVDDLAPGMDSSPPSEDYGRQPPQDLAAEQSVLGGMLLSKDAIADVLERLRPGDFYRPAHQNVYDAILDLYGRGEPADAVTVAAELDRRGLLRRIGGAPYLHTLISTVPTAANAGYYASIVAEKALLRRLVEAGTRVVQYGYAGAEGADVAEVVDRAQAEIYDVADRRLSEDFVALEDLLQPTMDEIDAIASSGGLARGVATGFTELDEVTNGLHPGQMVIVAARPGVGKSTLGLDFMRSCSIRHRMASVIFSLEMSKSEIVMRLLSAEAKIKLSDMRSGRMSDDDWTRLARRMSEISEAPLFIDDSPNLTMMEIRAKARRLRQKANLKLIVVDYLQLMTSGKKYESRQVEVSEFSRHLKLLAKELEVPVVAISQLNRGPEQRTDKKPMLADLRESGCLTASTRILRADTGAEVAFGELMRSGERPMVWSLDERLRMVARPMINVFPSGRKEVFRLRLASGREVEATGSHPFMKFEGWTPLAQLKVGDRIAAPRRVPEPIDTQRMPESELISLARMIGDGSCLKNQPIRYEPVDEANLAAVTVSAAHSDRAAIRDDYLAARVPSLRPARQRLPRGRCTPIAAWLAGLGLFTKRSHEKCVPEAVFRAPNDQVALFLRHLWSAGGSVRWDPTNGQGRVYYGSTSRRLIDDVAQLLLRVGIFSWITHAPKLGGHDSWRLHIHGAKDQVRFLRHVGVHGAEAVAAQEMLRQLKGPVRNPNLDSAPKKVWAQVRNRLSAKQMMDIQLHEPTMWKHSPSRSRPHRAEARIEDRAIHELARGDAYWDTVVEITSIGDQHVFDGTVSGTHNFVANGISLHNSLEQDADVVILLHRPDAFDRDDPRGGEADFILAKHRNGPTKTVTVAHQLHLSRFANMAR

Protein RecA = biological target: T7, Protein RecA (Mycobacterium tuberculosis, UniProt P9WHJ3); test: Fluorescence Cell-Free Homogeneous Dose Retest to Identify Inhibitors of RecA-Intein Splicing Activity. [Related pubchem assays (depositor defined):AID2097, AID2223, AID489010, AID492950]; type: functional
T7 sequence (P9WHJ3 whole entry): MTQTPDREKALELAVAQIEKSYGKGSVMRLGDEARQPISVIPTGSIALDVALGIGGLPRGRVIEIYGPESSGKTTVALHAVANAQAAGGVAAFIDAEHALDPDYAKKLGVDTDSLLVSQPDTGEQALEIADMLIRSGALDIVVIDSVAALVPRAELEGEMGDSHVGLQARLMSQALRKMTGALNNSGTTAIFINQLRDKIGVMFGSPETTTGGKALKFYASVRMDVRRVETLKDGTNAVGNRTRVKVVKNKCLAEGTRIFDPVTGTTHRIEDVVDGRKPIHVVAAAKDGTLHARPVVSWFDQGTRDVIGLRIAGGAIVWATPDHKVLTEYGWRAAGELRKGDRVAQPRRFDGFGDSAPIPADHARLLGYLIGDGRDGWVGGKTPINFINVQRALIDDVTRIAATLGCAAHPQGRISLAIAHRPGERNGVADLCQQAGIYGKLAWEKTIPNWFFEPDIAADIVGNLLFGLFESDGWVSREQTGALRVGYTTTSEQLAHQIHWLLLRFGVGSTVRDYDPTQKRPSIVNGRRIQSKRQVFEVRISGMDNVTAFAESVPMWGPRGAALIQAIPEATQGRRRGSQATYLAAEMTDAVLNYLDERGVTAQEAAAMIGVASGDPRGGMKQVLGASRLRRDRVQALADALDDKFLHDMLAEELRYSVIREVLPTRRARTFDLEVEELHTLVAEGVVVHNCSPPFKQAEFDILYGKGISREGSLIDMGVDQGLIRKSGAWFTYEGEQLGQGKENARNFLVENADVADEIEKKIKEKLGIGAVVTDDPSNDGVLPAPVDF

[15] = biological target: Glyceraldehyde-3-phosphate dehydrogenase (Homo sapiens, UniProt P04406)
Chain of Glyceraldehyde-3-phosphate dehydrogenase (P04406 whole entry): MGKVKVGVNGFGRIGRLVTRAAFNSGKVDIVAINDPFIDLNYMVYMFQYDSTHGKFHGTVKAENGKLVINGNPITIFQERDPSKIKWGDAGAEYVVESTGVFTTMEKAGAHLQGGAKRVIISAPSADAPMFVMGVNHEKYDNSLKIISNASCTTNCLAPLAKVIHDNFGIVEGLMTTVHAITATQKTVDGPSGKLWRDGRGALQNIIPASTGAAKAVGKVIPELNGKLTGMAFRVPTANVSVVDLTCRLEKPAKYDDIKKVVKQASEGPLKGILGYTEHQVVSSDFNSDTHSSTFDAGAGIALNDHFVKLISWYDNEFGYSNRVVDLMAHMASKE

For `COC(=O)c1cn(NC(=O)c2cc(OC)c(OC)c(OC)c2)c(=O)c2ccccc12`, the EC50 [1] was 41.4 µM (active).

With `C/C(CC(=O)N1CCN(C=O)CC1)=N\NC(=O)c1cc2ccccc2cc1O` the IC50 [2] was 42.5 µM (active).

With `O=C(CN(C(=O)CSc1nnc(COc2ccccc2)o1)c1ccc(F)cc1)NC1CCCCC1` the IC50 [3] was 3.19 µM (not active).

With `CCN(CC)CCCNC(=O)c1cc2c(O)nc3ccc(C)cc3c2s1` the AC50 [4] was 62.4 µM (active) and the AC50 [5] was 21.5 µM (active).

With `CSCc1cc(N(C)c2ccccc2)nc(-c2ccccn2)n1` the EC50 [6] was 1.89 µM (active), the EC50 [7] was > 60 µM (not active) and the EC50 (Streptococcus) was 25 µM (active). For the same molecule, the EC50 (Streptokinase A) was > 150 µM (not active), the AC50 [8] was 108 µM (active) and the EC50 [9] was 6.57 µM (active).

With `COc1ccc(-c2cnc3c(NC(C)=O)cc(-c4cccc(C(=O)NCCN(C)C)c4)cn23)cc1OC` the AC50 [4] was 15.2 µM (active) and the AC50 [5] was 2.33 µM (active).

In the case of `COc1ccc(Nc2nc3nc(O)cc(O)c3s2)cc1`, the IC50 [2] is reported as > 50 µM (not active).

With `c1ccc(CCN2CN=C(Nc3nc4ccccc4o3)NC2)cc1` the EC50 (cells [10]) was > 29.9 µM (inactive), the EC50 (H4) was 17.3 µM (active) and the EC50 [11] was 8.35 µM (active). The EC50 [12] was 14.3 µM (active) and the IC50 (cells [13]) was > 29.9 µM (inactive).

With `Nc1ccc2ncccc2c1` the AC50 [14] was 6.42 µM (active), the EC50 (Protein RecA) was 5.95 µM (active) and the IC50 [2] was > 50 µM (not active).

With `Cn1c(NCCN2CCCC2)nc2cc(-c3ccccc3)sc2c1=O` the AC50 [4] was 39.3 µM (active) and the AC50 [5] was 16.2 µM (active).

For `Cc1sc(NC(=S)NC(=O)c2cccs2)nc1-c1ccc(C(C)C)cc1`, the IC50 [3] was 26 µM (not active).

In the case of `Cc1ccsc1-c1cc2nc(NCCCN(C)C)n(C)c(=O)c2s1`, the AC50 [4] is reported as 47 µM (active) and the AC50 [5] is reported as 9.79 µM (active).

In the case of `CCCCOC(=O)c1ccc(S(N)(=O)=O)o1`, the IC50 [15] is reported as > 100 µM (not active).

For `O=C(/C=C/c1ccc([N+](=O)[O-])cc1)NCCSc1ccccc1`, the IC50 [3] was 15.9 µM (not active).

For `Oc1ncc(NCCc2ccccc2)c(O)n1`, the EC50 (cells [10]) was > 29.9 µM (inactive) and the IC50 (cells [13]) was > 29.9 µM (inactive).

Source: ChEMBL document CHEMBL1201862, “PubChem BioAssay data set” (2004)
